Results published in patent publication US12714700B2 (priority 2017, dated 2026).

System: ob/ob mice
Conditions: cohort 2 (HFD conditioning, then 50 mg/kg), relative to untreated controls

Question: For `N#Cc1ccc2nnc(C(=O)N3CCC(c4cccc(F)c4C(F)(F)F)CC3)n2c1` [Compound 2, 3-(4-(3-fluoro-2-(trifluoromethyl)phenyl)piperidine-1-carbonyl)-[1,2,4]triazolo[4,3-a]pyridine-6-carbonitrile], which NASH fibrosis scores is on record?
Answer: reduction

Question: What about the “amount of bridging fibrosis” value of the same compound?
Answer: decrease
